Legend:
MCF7 = test: Growth inhibition of human MCF7 cells incubated for 48 hrs by sulforhodamine B assay; format: functional, cell-based; conditions: MCF7, 48 h
SK-MEL-5 [1] = test: Growth inhibition of human SK-MEL-5 cells assessed as cell growth at 1 uM incubated for 48 hrs by sulforhodamine B assay relative to control; format: functional; conditions: SK-MEL-5, 48 h, read-out: Activity
OVCAR-4 = test: Growth inhibition of human OVCAR4 cells assessed as cell growth at 1 uM incubated for 48 hrs by sulforhodamine B assay relative to control; format: functional; conditions: OVCAR-4, 48 h, read-out: Activity
Malme-3M = test: Growth inhibition of human MALME-3M cells assessed as cell growth at 100 uM incubated for 48 hrs by sulforhodamine B assay relative to control; format: functional; conditions: read-out: Activity
SR = test: Growth inhibition of human SR cells incubated for 48 hrs by sulforhodamine B assay; format: functional, cell-based
SK-MEL-5 [2] = test: Growth inhibition of human SK-MEL-5 cells incubated for 48 hrs by sulforhodamine B assay; format: functional, cell-based; conditions: SK-MEL-5, 48 h
BT-549 [3] = test: Growth inhibition of human BT549 cells incubated for 48 hrs by sulforhodamine B assay; format: functional, cell-based; conditions: BT-549, 48 h
SNB-75 = test: Growth inhibition of human SNB75 cells assessed as cell growth at 1 uM incubated for 48 hrs by sulforhodamine B assay relative to control; format: functional; conditions: SNB-75, 48 h, read-out: Activity
A549 = test: Growth inhibition of human A549/ATCC cells assessed as cell growth at 100 uM incubated for 48 hrs by sulforhodamine B assay relative to control; format: functional; conditions: A549, 48 h, read-out: Activity
SF-539 = test: Growth inhibition of human SF539 cells incubated for 48 hrs by sulforhodamine B assay; format: functional, cell-based; conditions: SF-539, 48 h
786-0 = test: Growth inhibition of human 786-0 cells incubated for 48 hrs by sulforhodamine B assay; format: functional, cell-based; conditions: 786-0, 48 h
UO-31 = test: Growth inhibition of human UO31 cells assessed as cell growth at 0.1 uM incubated for 48 hrs by sulforhodamine B assay relative to control; format: functional; conditions: UO-31, 48 h, read-out: Activity
SN12C = test: Growth inhibition of human SN12C cells assessed as cell growth at 100 uM incubated for 48 hrs by sulforhodamine B assay relative to control; format: functional; conditions: read-out: Activity
NCI-H522 = test: Growth inhibition of human NCI-H522 cells assessed as cell growth at 100 uM incubated for 48 hrs by sulforhodamine B assay relative to control; format: functional; conditions: NCI-H522, 48 h, read-out: Activity
MOLT-4 = test: Growth inhibition of human MOLT4 cells incubated for 48 hrs by sulforhodamine B assay; format: functional, cell-based; conditions: MOLT-4, 48 h
M14 [4] = test: Growth inhibition of human M14 cells assessed as cell growth at 0.1 uM incubated for 48 hrs by sulforhodamine B assay relative to control; format: functional; conditions: M14, 48 h, read-out: Activity
OVCAR-5 = test: Growth inhibition of human OVCAR5 cells assessed as cell growth at 1 uM incubated for 48 hrs by sulforhodamine B assay relative to control; format: functional; conditions: OVCAR-5, 48 h, read-out: Activity
BT-549 [5] = test: Growth inhibition of human BT549 cells assessed as cell growth at 1 uM incubated for 48 hrs by sulforhodamine B assay relative to control; format: functional; conditions: BT-549, 48 h, read-out: Activity
HOP-62 = test: Growth inhibition of human HOP62 cells assessed as cell growth at 0.01 uM incubated for 48 hrs by sulforhodamine B assay relative to control; format: functional; conditions: HOP-62, 48 h, read-out: Activity
SK-MEL-28 = test: Growth inhibition of human SK-MEL-28 cells assessed as cell growth at 100 uM incubated for 48 hrs by sulforhodamine B assay relative to control; format: functional; conditions: SK-MEL-28, 48 h, read-out: Activity
SF-268 [6] = test: Growth inhibition of human SF268 cells assessed as cell growth at 100 uM incubated for 48 hrs by sulforhodamine B assay relative to control; format: functional; conditions: SF-268, 48 h, read-out: Activity
U-251 = test: Growth inhibition of human U251 cells assessed as cell growth at 0.01 uM incubated for 48 hrs by sulforhodamine B assay relative to control; format: functional; conditions: U-251, 48 h, read-out: Activity
NCI-H460 = test: Growth inhibition of human NCI-H460 cells assessed as cell growth at 0.1 uM incubated for 48 hrs by sulforhodamine B assay relative to control; format: functional; conditions: NCI-H460, 48 h, read-out: Activity
SF-268 [7] = test: Growth inhibition of human SF268 cells incubated for 48 hrs by sulforhodamine B assay; format: functional, cell-based; conditions: SF-268, 48 h
NCI-H226 = test: Growth inhibition of human NCI-H226 cells incubated for 48 hrs by sulforhodamine B assay; format: functional, cell-based; conditions: NCI-H226, 48 h
M14 [8] = test: Growth inhibition of human M14 cells assessed as cell growth at 1 uM incubated for 48 hrs by sulforhodamine B assay relative to control; format: functional; conditions: M14, 48 h, read-out: Activity
SK-MEL-2 = test: Growth inhibition of human SK-MEL-2 cells incubated for 48 hrs by sulforhodamine B assay; format: functional, cell-based; conditions: SK-MEL-2, 48 h
[9] = read-out: LC50 (the source's name)
[10] = read-out: pLC50 (the source's name) (converted)

With `O=C(Nc1cccc(-n2cc(-c3ccncc3)c(-c3cc(O)cc(Cl)c3)n2)c1)Nc1ccc(Cl)c(Cl)c1` the GI50 (MCF7; read-out: GI50) was 2.51 µM, the LC50 (MCF7; read-out: LC50) was greater than 100 µM and the TGI (MCF7; read-out: TGI) was 97.4 µM. For the same molecule, the GI50 (MCF7; read-out: pGI50 (converted)) was 2.82 µM, the LC50 (MCF7; read-out: pLC50 (converted)) was greater than 100 µM and the TGI (MCF7; read-out: pTGI (converted)) was 9.77 µM. It also gave a growth at 1 µM (SK-MEL-5 [1]) of 86%, a growth at 1 µM (OVCAR-4) of 100% and a growth at 100 µM (Malme-3M) of -45%. It also gave a GI50 (SR; read-out: GI50) of 1.3 µM, a CC50 (SR; [9]) greater than 100 µM and a TGI (SR; read-out: TGI) of 42.4 µM. The GI50 (SR; read-out: pGI50 (converted)) was 1.32 µM, the CC50 (SR; [10]) was greater than 100 µM and the TGI (SR; read-out: pTGI (converted)) was 4.27 µM. The GI50 (SK-MEL-5 [2]; read-out: GI50) was 1.52 µM, the CC50 (SK-MEL-5 [2]; [9]) was 5.75 µM and the TGI (SK-MEL-5 [2]; read-out: TGI) was 30.4 µM. The GI50 (SK-MEL-5 [2]; read-out: pGI50 (converted)) was 1.62 µM, the CC50 (SK-MEL-5 [2]; [10]) was 5.75 µM and the TGI (SK-MEL-5 [2]; read-out: pTGI (converted)) was 3.02 µM. For the same molecule, the GI50 (BT-549 [3]; read-out: GI50) was 2.06 µM, the CC50 (BT-549 [3]; [9]) was greater than 100 µM and the TGI (BT-549 [3]; read-out: TGI) was 52.2 µM. For the same molecule, the GI50 (BT-549 [3]; read-out: pGI50 (converted)) was 2.04 µM, the CC50 (BT-549 [3]; [10]) was greater than 100 µM and the TGI (BT-549 [3]; read-out: pTGI (converted)) was 5.25 µM. The growth at 1 µM (SNB-75) was 63%, the growth at 100 µM (A549) was -32% and the GI50 (SF-539; read-out: GI50) was 1.44 µM. It also gave a CC50 (SF-539; [9]) of 7.4 µM, a TGI (SF-539; read-out: TGI) of 32.7 µM and a GI50 (SF-539; read-out: pGI50 (converted)) of 1.45 µM. The CC50 (SF-539; [10]) was 7.41 µM, the TGI (SF-539; read-out: pTGI (converted)) was 3.24 µM and the GI50 (786-0; read-out: GI50) was 1.48 µM. For the same molecule, the CC50 (786-0; [9]) was 9.31 µM, the TGI (786-0; read-out: TGI) was 37.1 µM and the GI50 (786-0; read-out: pGI50 (converted)) was 1.48 µM. The CC50 (786-0; [10]) was 9.33 µM, the TGI (786-0; read-out: pTGI (converted)) was 3.72 µM and the growth at 0.1 µM (UO-31) was 93%. It also gave a growth at 100 µM (SN12C) of -15%, a growth at 100 µM (NCI-H522) of -55% and a GI50 (MOLT-4; read-out: GI50) of 1.43 µM. It also gave a CC50 (MOLT-4; [9]) greater than 100 µM, a TGI (MOLT-4; read-out: TGI) of 51.8 µM and a GI50 (MOLT-4; read-out: pGI50 (converted)) of 1.41 µM. For the same molecule, the CC50 (MOLT-4; [10]) was greater than 100 µM, the TGI (MOLT-4; read-out: pTGI (converted)) was 5.13 µM and the growth at 0.1 µM (M14 [4]) was 93%. It also gave a growth at 1 µM (OVCAR-5) of 56%, a growth at 1 µM (BT-549 [5]) of 89% and a growth at 0.01 µM (HOP-62) of 105%. For the same molecule, the growth at 100 µM (SK-MEL-28) was -52%, the growth at 100 µM (SF-268 [6]) was -11% and the growth at 0.01 µM (U-251) was 96%. It also gave a growth at 0.1 µM (NCI-H460) of 97%, a GI50 (SF-268 [7]; read-out: GI50) of 3.22 µM and a CC50 (SF-268 [7]; [9]) greater than 100 µM. For the same molecule, the TGI (SF-268 [7]; read-out: TGI) was 32.6 µM, the GI50 (SF-268 [7]; read-out: pGI50 (converted)) was 3.24 µM and the CC50 (SF-268 [7]; [10]) was greater than 100 µM. It also gave a TGI (SF-268 [7]; read-out: pTGI (converted)) of 33.1 µM, a GI50 (NCI-H226; read-out: GI50) of 2.28 µM and an LC50 (NCI-H226; read-out: LC50) greater than 100 µM. The TGI (NCI-H226; read-out: TGI) was 71.6 µM, the GI50 (NCI-H226; read-out: pGI50 (converted)) was 2.29 µM and the LC50 (NCI-H226; read-out: pLC50 (converted)) was greater than 100 µM. For the same molecule, the TGI (NCI-H226; read-out: pTGI (converted)) was 7.08 µM, the growth at 1 µM (M14 [8]) was 72% and the GI50 (SK-MEL-2; read-out: GI50) was 1.3 µM. The CC50 (SK-MEL-2; [9]) was 9.1 µM, the TGI (SK-MEL-2; read-out: TGI) was 40.4 µM and the GI50 (SK-MEL-2; read-out: pGI50 (converted)) was 1.78 µM. For the same molecule, the CC50 (SK-MEL-2; [10]) was 9.12 µM and the TGI (SK-MEL-2; read-out: pTGI (converted)) was 4.07 µM.

Source: ChEMBL document CHEMBL4308841, “Synthesis, in vitro antiproliferative activity, and kinase inhibitory effects of pyrazole-containing diarylureas and diarylamides” (Eur J Med Chem, 2018)
